Measurements from patent publication US20230357261A1, “ARYL HYDROCARBON RECEPTOR LIGANDS AND THEIR ANALOGUES FOR THE PREVENTION AND TREATMENT OF INFLAMMATORY DISORDERS” (The Johns Hopkins University, priority 2020, published 2023).

How the values were obtained:
AHR [1] = test: AHR activation in mouse intestine in vivo (Cyp1a1 expression by qRT-PCR); conditions: for Cyp1a1 expression in the intestinal epithelium: fed I3C 25 mg/kg/day or A18 300 mg/kg/day
Protocol: Hits were validated for activation of AHR signaling by oral gavage into neonatal C57/B16 mice (p11), and measuring the expression of the AHR activation reporter Cyp1a1 by qRT-PCR in the intestinal mucosa 24 hours later. The lead compound from these studies is herein labelled “A18”. Additionally, the mice were subjected to hypoxia (5% 02-95% N2) for 10 min in a hypoxia chamber (Billups-Rothenberg) twice daily for 4 days. […] To test the protective effect of breast milk on AHR signaling a NEC, human breast milk (Innovative Research) was supplemented to the formula at the final concentration of 5%. Endotoxemia was induced in neonatal mouse pups (p11) by administering 5 mg/kg lipopolysaccharides (LPS) via intraperitoneal injection, and ileal samples were harvested 6 hours after LPS treatments. […] I3C and A18 were administered to the pregnant mother daily until the offspring were studied further for experimental NEC or endotoxemia as above. […] The mRNA quantification was performed on the Bio-Rad CFX96 Real-Time System (Bio-Rad) using iTaqTM universal SYBR® Green supermix (Bio-Rad) and the primers listed in Table 1. The relative mRNA expression levels were normalized against the expression of the housekeeping gene ribosomal protein lateral stalk subunit P0 (Rplp0). For microRNA isolation, freshly harvested, snap-frozen ileal tissue was subjected to total RNA isolation using the RNeasy plus universal mini kit (Qiagen) and miRNA was quantified using miScript PCR starter kit (Qiagen) following the manufacturer's protocols. The relative miRNA expression levels were normalized against the expression of housekeeping miRNA miR-191.

mouse NEC model = test: Experimental NEC in newborn mice (Example 1); assay type: in vivo
TLR4 [2] = test: TLR4 signaling and expression in human ileal explant culture (LPS); assay type: cell-based
Excerpt: (§1) De-identified human ileal samples were collected via waiver of consent from the Office of Human Subjects Research Review Boards at Johns Hopkins University (IRB00094036), during surgery for NEC or at the time of stoma closure. For RNA isolation and qRT-PCR analysis, fresh samples were snapfrozen in liquid nitrogen immediately. For human explant culture, fresh ileum samples from NEC patients or patient undergoing stoma re-anastomosis were washed with sterile phosphate-buffered saline containing gentamycin (5 μg/mL), minced into 2- to 4-mm diameter pieces, and then cultured in Dulbecco's modified Eagle growth medium supplemented with 10% fetal bovine serum, 4 μg/mL human recombinant insulin and 100 μg/mL Primocin. Human ilea explant cultures were then pre-treated with 200 μM I3C or 20 μM A18 for 15 minutes, and then with 50 μg/mL LPS for 6 hours, then processed for total RNA isolation followed by qRT-PCR.
(§2) Total RNA was isolated using the RNeasy mini kit (Qiagen) and complementary DNA was synthesized from 0.5 μg RNA using QuantiTect Reverse Transcription kit (Qiagen) following the manufacturer's protocols. The mRNA quantification was performed on the Bio-Rad CFX96 Real-Time System (Bio-Rad) using iTaq™ universal SYBR® Green supermix (Bio-Rad) and the primers listed in Table 1. The relative mRNA expression levels were normalized against the expression of the housekeeping gene ribosomal protein lateral stalk subunit P0 (Rplp0). For microRNA isolation, freshly harvested, snap-frozen ileal tissue was subjected to total RNA isolation using the RNeasy plus universal mini kit (Qiagen) and miRNA was quantified using miScript PCR starter kit (Qiagen) following the manufacturer's protocols. The relative miRNA expression levels were normalized against the expression of housekeeping miRNA miR-191.

AHR [3] = test: AHR activation in human ileal explant culture (Cyp1a1 qRT-PCR); assay type: cell-based; conditions: 200 μM I3C or 20 μM A18, 15 minutes pre-treatment then 6 hours
Excerpt: as §1, with “Human ilea explant cultures were then pre-treated with 200 μM I3C or 20 μM A18 for 15 minutes, and then with 50 μg/mL LPS for 6 hours, then processed for total RNA isolation followed by qRT-PCR.” left out
as §2, with “The relative mRNA expression levels were normalized against the expression of the housekeeping gene ribosomal protein lateral stalk subunit P0 (Rplp0).” left out, “The relative miRNA expression levels were normalized against the expression of housekeeping miRNA miR-191.” left out

AHR [4] = test: AHR activation in IEC-6 enterocytes (Cyp1a1 expression); assay type: cell-based, rat; conditions: A18, 6 hours
Protocol: The intestinal epithelial cells line IEC-6 (ATCC CRL-1592) was stably transduced with lentiviral particles containing Cignal Lenti XRE Reporter (luc) (Qiagen). Cells were treated serially with individual chemicals contained within the Johns Hopkins Drug Library (JHDL), which contains a series of FDA-approved drugs, Chong et al., 2006, (kindly provided by Dr. Jun O. Liu, Johns Hopkins University) at 10 μM for 24 hours, and the luciferase activity was quantified using the SpectraMax M3 (Molecular Devices).
as §2

[5] = cited from earlier work
TLR4 [6] = test: TLR4 signaling and Tlr4 expression in newborn mouse ileum in vivo (endotoxemia model, LPS)
Protocol: Endotoxemia was induced in neonatal mouse pups (p11) by administering 5 mg/kg lipopolysaccharides (LPS) via intraperitoneal injection, and ileal samples were harvested 6 hours after LPS treatments. […] I3C and A18 were administered to the pregnant mother daily until the offspring were studied further for experimental NEC or endotoxemia as above. […] The mRNA quantification was performed on the Bio-Rad CFX96 Real-Time System (Bio-Rad) using iTaqTM universal SYBR® Green supermix (Bio-Rad) and the primers listed in Table 1. The relative mRNA expression levels were normalized against the expression of the housekeeping gene ribosomal protein lateral stalk subunit P0 (Rplp0). For microRNA isolation, freshly harvested, snap-frozen ileal tissue was subjected to total RNA isolation using the RNeasy plus universal mini kit (Qiagen) and miRNA was quantified using miScript PCR starter kit (Qiagen) following the manufacturer's protocols. The relative miRNA expression levels were normalized against the expression of housekeeping miRNA miR-191.

[7] = A18 administered during pregnancy
[8] = wild-type newborn mice, A18 300 mg/kg body weight/day for 4 days, oral

With Cc1c(OCC(F)(F)F)ccnc1C[S+]([O-])c1nc2ccccc2[nH]1 (centres unmarked) [A18, Lansoprazole] the “Cyp1a1 expression in the offspring pup intestine” value (AHR [1]; A18 administered during pregnancy, 300 mg/kg body weight/day) was “induced the expression of Cyp1a1”, the “Cyp1a1 expression in the intestinal epithelium” value (AHR [1]; Ahr^−/− newborn mice) was “not” and the “Cyp1a1 expression in the intestinal epithelium” value (AHR [1]; wild-type newborn (p11) mice) was “induced the expression of Cyp1a1”. For the same compound, the “Tlr4 expression in the neonatal gut (NEC)” value (mouse NEC model; [7]) was “reduced”, the “Tnf-a expression in the neonatal gut (NEC)” value (mouse NEC model; [7]) was “reduced Tnf-a” and the “histology and NEC severity” value (mouse NEC model; [7]) was “improved histology and NEC severity”. For the same compound, the “NEC severity in the offspring” value (mouse NEC model; A18 administered during pregnancy (M-A18, 300 mg/kg body weight/day)) was “significantly reduced NEC severity”, the “prevention and treatment of NEC in mouse models” value (mouse NEC model; summary statement) was “effectively prevented and treated NEC” and the NEC severity (mouse NEC model; wild-type mice, oral to pups during NEC induction: I3C 25 mg/kg/day, A18 300 mg/kg/day, or human breast milk 5% in formula) was “significantly reduced NEC severity”. The NEC severity score (mouse NEC model; [8]) was “improved NEC severity score”, the “expression of I16 (NEC)” value (mouse NEC model; [8]) was “reduced expression of I16” and the “histology of the terminal ileum (NEC)” value (mouse NEC model; [8]) was “improved histology”. The “Tlr4 expression in human intestine ex vivo” value (TLR4 [2]; 20 μM A18, LPS 50 μg/mL for 6 hours) was “significantly reduced”, the “LPS-induced Tnf-a expression in human intestinal explant cultures” value (TLR4 [2]; 200 μM I3C or 20 μM A18, LPS 50 μg/mL for 6 hours) was “significantly reduced LPS-induced Tnf-a expression” and the “inflammation in the intestine of human resected at the time of surgery for NEC” value (TLR4 [2]; summary statement) was “dampened inflammation”. For the same compound, the “Cyp1a1 expression in human intestinal explant cultures” value (AHR [3]) was “significantly induced Cyp1a1 expression”, the “Cyp1a1 expression in IEC-6 enterocytes” value (AHR [4]) was “induced the expression of Cyp1a1” and the “bound in human plasma” value ([5]; human plasma) was “approximately 97%”. For the same compound, the plasma elimination half-life ([5]; in humans) was “approximately 2 h”, the absorption ([5]; in vivo) was “rapidly absorbed” and the “metabolism by CYP3A4 and CYP2C18” value ([5]; in vivo) was “extensively metabolized”. For the same compound, the “Tlr4 expression in the intestinal mucosa / newborn ileum” value (TLR4 [6]; wild-type mice, fed I3C or A18) was “reduced Tlr4 expression” and the “TLR4 (LPS)-induced 116 expression in the intestine” value (TLR4 [6]; wild-type newborn mice, fed A18 (300 mg/kg/day) or oral breast milk) was “significantly reduced TLR4-induced 116 expression”.
